In assay [1] the test system is KB-8-5 cells. Kind of assay: SRB cytotoxicity test procedure with KB-8-5 cells. Particulars: SRB assay. It counts as cell-based, human. From the text:
(§1) Human cancer cell lines, unless otherwise noted, are obtained from the American Type Culture Collection (Rockville, Md.). The following drug-sensitive parental cell lines, and their derived drug-resistant counterparts, are obtained from the originators as listed: (a) S1 (parental line from a subclone of human colon carcinoma line LS174T) and derived S1-M1-3.2 (herein called S1-M1) which expresses the MXR drug transporter protein, are provided by Dr. L. Greenberger, Wyeth Research (Rabindran, S. K., He, H., Singh, M., Brown, E., Collins, K. I., Annable, T., and Greenberger, L. M. Reversal of a novel multidrug resistance mechanism in human colon carcinoma cells by fumitremorgin C. Cancer Res., 58: 5850-5858,1998); (b) parental HL-60 human promyelocytic leukemia line and derived HL-60/ADR, which expresses the MRP1 drug transporter protein, are provided by Dr. M. Center, University of Kansas (McGrath, T., and Center, M. S. Adriamycin resistance in HL60 cells in the absence of detectable P-glycoprotein. Biochem. Biophys. […] J. Biol. Chem., 261: 7762-7770, 1986) via Dr. L. Greenberger, Wyeth Research.
The SRB standard cytotoxicity assay is done according to previously reported methods (Discafani, C. M., Carroll, M. L., Floyd Jr., M. B. F., Hollander, I. J., Husain, Z., Johnson, B. D., Kitchen, D., May, M. K., Malo, M. S., Minnick Jr., A. A., Nilakantan, R., Shen, R., Wang Y-F., Wissner, A., Greenberger, L. M. Irreversible inhibition of epidermal growth factor receptor tyrosine kinase with in vivo activity by N-[4-[3-bromophenyl)amino]-6-quinaxolinyl]-2-butynamide (CL-387,785). Biochem. Pharmacol., 57: 917-925, 1999). Briefly, cells are plated in 100 μL of medium in 96-well flat-bottom microtiter plates in the morning of day 1 and allowed to adhere to the plates for 2-6 hr. Compounds are serially diluted into medium as 2× stocks and 100 μL of these stocks are added to cells in duplicate. Compounds are incubated with cells for 3 days. At the end of the incubation period the sulforhodamine B (SRB) assay, which measures protein content as an assessment of cell survival, is performed as described previously (Skehan, P., Storeng, R., Scudiero, D., Monks, A., McMahon, J., Vistica, D., Warren, J. T., Bokesch, H., Kenney, S., Boyd, M. R. New calorimetric cytotoxicity assay for anticancer-drug screening. J. Natl. Cancer Inst., 82:1107-1112, 1990) with some modifications. Medium is gently decanted from plates and replaced with 200 μL per well of cold serum-free medium containing a final concentration of 10% trichloroacetic acid. The plates are incubated for 1 hr at 40, washed 5 times in cold distilled water, and air-dried overnight. […] Absorbance is read on a Victor V multi-label plate reader (Perkin Elmer, Gaithersburg, Md.). […]
Background: Sulforhodamine B stains cellular protein and so reports cell mass.

Another assay has as its system KB cells. As to the kind of experiment: SRB cytotoxicity test procedure with KB cells. It counts as cell-based. The conditions noted are these: Homo sapiens, SRB assay, means of 2 independent experiments. From the text: (§2) Human cancer cell lines, unless otherwise noted, are obtained from the American Type Culture Collection (Rockville, Md.). […]
The SRB standard cytotoxicity assay is done according to previously reported methods (Discafani, C. M., Carroll, M. L., Floyd Jr., M. B. F., Hollander, I. J., Husain, Z., Johnson, B. D., Kitchen, D., May, M. K., Malo, M. S., Minnick Jr., A. A., Nilakantan, R., Shen, R., Wang Y-F., Wissner, A., Greenberger, L. M. Irreversible inhibition of epidermal growth factor receptor tyrosine kinase with in vivo activity by N-[4-[3-bromophenyl)amino]-6-quinaxolinyl]-2-butynamide (CL-387,785). […] Absorbance is read on a Victor V multi-label plate reader (Perkin Elmer, Gaithersburg, Md.). […]

For a further assay, the system named is HL-60 cells. Kind of assay: MTS cytotoxicity test procedure with HL-60 cells. Particulars: Homo sapiens, MTS assay, means of 2 independent experiments. It counts as cell-based.
Text: as §2
(§3) The MTS assay, which is sold in kit form by Promega (Madison, Wis.; CellTiter 96 AQueous Non-Radioactive Cell Proliferation Assay), is based on the conversion by viable cells, but not by dead cells, of the tetrazolium salt, MTS (3-(4,5-dimethylthiazol-2-yl)-5-(3-carboxymethoxyphenyl)-2-(4-sulphophenyl)-2H-tetrazolium, inner salt), into a water-soluble colored formazan which is detected by spectrophotometry. […] For the test procedure, cells are harvested by trypsinization (or, in the case of non-adherent cells, by simple resuspension), washed, counted and distributed to wells of 96-well flat-bottom microtiter plates at 1000 cells per well in 200 μL of medium. […]
(§4) After three days of culture with test compounds (day 5 overall), the MTS assay is done on all wells of the experimental plates. The absorbance values of the quadruplicate sample wells are averaged and divided by the average of the “time 0” values. […]

The subject of the next assay is KB-V1 cells. As to the kind of experiment: MTS cytotoxicity test procedure with KB-V1 cells. The conditions noted are these: MTS assay. It counts as cell-based, human.
Text: as §1
The MTS assay, which is sold in kit form by Promega (Madison, Wis.; CellTiter 96 AQueous Non-Radioactive Cell Proliferation Assay), is based on the conversion by viable cells, but not by dead cells, of the tetrazolium salt, MTS (3-(4,5-dimethylthiazol-2-yl)-5-(3-carboxymethoxyphenyl)-2-(4-sulphophenyl)-2H-tetrazolium, inner salt), into a water-soluble colored formazan which is detected by spectrophotometry. Compounds are tested at nine concentrations, in order to determine IC50 values. For the test procedure, cells are harvested by trypsinization (or, in the case of non-adherent cells, by simple resuspension), washed, counted and distributed to wells of 96-well flat-bottom microtiter plates at 1000 cells per well in 200 μL of medium. […]
as §4

The next assay deals with S1 cells. Kind of assay: MTS cytotoxicity test procedure with S1 cells. It counts as cell-based. The conditions noted are these: Homo sapiens, MTS assay, means of 2 independent experiments.
Text: as §2, §3, §4

In assay [2] the test system is KB-8-5 cells. As to the kind of experiment: MTS cytotoxicity test procedure with KB-8-5 cells. It counts as cell-based, human. The conditions noted are these: MTS assay.
Text: as §2, §3, §4

Where [3] appears, read: Homo sapiens, KB 8.5 cells, means of 2 independent experiments.
The mark [4] stands for this setting: IC50 on KB 8.5 cells/IC50 on KB cells.

As usually defined, the IC50 is the midpoint of a concentration-inhibition curve. Read a low IC50 as greater potency in that assay.

In the case of `CC(=O)O[C@H]1C(=O)[C@@]2(C)[C@H]([C@H](OC(=O)c3ccccc3)[C@]3(O)C[C@H](OC(=O)[C@H](O)[C@@H](NC(=O)c4ccccc4)c4ccccc4)C(C)=C1C3(C)C)[C@]1(OC(C)=O)CO[C@@H]1C[C@@H]2O` [Paclitaxel, reference compound], the IC50 with KB-8-5 cells [1] (setting [3]) was determined as 34 nM; in the assay on KB cells, 2.2 nM. Moreover, the “Ratio 8.5/KB” value in the assay on KB-8-5 cells [1] (setting [4]) worked out at 16.
Turning to `CN(C)CCCOc1cc(F)c(-c2c(Cl)nc3nccn3c2C2CCCCCC2)c(F)c1` [Example 6, 3-[4-(7-Chloro-5-cycloheptylimidazo[1,2-a]pyrimidin-6-yl)-3,5-difluorophenoxy]-N,N-dimethylpropan-1-amine], the IC50 turned out to be 53 nM with HL-60 cells; 204 nM with KB-V1 cells (Homo sapiens, KB-V1, KB VI cells, means of 2 independent experiments); 63 nM in the assay with S1 cells; 63 nM with KB-8-5 cells [2] (setting [3]). The “Ratio VI/KB” value with KB-V1 cells (IC50 on KB VI cells/IC50 on KB cells) came to 4.6. In addition, the “Ratio 8.5/KB” value in the assay with KB-8-5 cells [2] (setting [4]) is 1.4.
